Experimental data published in patent publication US20160067248A1, “COMBINATIONS” (GlaxoSmithKline Intellectual Property Development Limited, priority 2011, published 2016).

Columns and labels:
[1] = tested on: SKOV3-Ip1 / HeyA8 tumor xenograft; assay: Combination study, intraperitoneal ovarian tumor xenograft models in nude mice; type: in vivo; conditions: pazopanib 100 mg/kg oral daily
Protocol: Tumor cells were injected intraperitoneally into nude mice. For the first study, mice were inoculated with 1,000,000 SKOV3-Ip1 cells. For the second study, mice were inoculated with 250,000 HeyA8 cells. At the time of inoculation, mice were randomized into groups to be treated by oral gavage and intraperitoneal injection. The animals were grouped as described below. The criteria for end point was animals in any group being moribund. At the time of dissection, animals were sacrificed by cervical dislocation and necropsy immediately performed. Tumor nodules were counted and aggregate tumor weight (g) was recorded. Tumors were fixed in 10% formalin, and fresh tumor was flash-frozen for future analysis.
The goal of this study was to determine the in vivo effects of each of pazopanib, the FAK inhibitor, and docetaxel, alone and in combinations. Nude mice were inoculated with tumor as described above and randomized to the groups below. The following doses of each inhibitor were used: FAK-inhibitor, 75 mg/kg, oral, daily; pazopanib, 100 mg/kg, oral, daily; docetaxel, 35 ug, IP, weekly. […] Tumor nodules were counted and aggregate tumor weight (g) was recorded. […]
In vitro dose-response, in vivo tumor growth and scoring of the immunohistochemistry are presented as mean±Standard Error. Statistical significance was assessed by student's T-test and P≦0.05 was considered to be significant. […]

SKOV3-IP1 cells [2] = assay: Invasion of SKOV3-IP1 cells; type: cell-based, human; conditions: p<0.001
[3] = molecular target: T1, FAK phosphorylation at Y397 (pFAK^Y397) (Homo sapiens, UniProt Q05397); assay: FAK phosphorylation at Y397 (pFAK Y397) in ovarian cancer cells; type: cell-based
T1 construct: endogenous in cells; host or cells: SKOV3-IP1 and HeyA8 cells
T1 sequence (Q05397 whole entry): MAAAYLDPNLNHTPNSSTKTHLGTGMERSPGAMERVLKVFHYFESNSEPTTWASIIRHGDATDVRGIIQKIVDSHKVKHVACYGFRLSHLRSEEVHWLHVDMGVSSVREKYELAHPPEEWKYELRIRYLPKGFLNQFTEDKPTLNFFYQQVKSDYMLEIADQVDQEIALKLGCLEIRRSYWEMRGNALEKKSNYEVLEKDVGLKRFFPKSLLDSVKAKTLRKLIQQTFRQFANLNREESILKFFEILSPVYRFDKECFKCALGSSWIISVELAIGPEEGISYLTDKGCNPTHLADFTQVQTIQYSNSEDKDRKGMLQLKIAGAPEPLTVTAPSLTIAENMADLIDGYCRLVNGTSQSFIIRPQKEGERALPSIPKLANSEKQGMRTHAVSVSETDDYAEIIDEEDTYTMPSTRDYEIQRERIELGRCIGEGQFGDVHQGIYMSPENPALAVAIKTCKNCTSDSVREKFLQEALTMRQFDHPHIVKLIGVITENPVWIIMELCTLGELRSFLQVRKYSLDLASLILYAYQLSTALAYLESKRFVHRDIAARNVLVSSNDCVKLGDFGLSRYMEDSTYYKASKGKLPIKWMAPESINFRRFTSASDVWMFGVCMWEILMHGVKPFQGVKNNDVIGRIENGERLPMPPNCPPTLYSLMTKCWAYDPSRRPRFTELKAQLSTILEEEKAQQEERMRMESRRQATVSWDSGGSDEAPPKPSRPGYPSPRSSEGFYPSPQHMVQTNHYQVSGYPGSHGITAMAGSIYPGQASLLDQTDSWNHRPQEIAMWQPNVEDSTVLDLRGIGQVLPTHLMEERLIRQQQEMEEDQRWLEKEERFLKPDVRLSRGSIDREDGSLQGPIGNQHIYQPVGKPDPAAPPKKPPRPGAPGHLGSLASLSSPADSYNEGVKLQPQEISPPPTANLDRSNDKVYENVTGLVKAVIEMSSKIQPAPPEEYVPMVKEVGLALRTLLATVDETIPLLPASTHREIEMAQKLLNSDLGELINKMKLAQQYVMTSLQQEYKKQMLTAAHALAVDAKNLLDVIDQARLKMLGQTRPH

SKOV3-IP1 cells [4] = assay: Migration of SKOV3-IP1 cells; type: cell-based, human; conditions: p<0.001

SMILES | decrease of MVD ([1]; p<0.01) | reduction in invasion (SKOV3-IP1 cells [2]) | levels of FAK phosphorylation at Y397 (pFAK^Y397) ([3]; HeyA8 cells, 10 μM) | levels of FAK phosphorylation at Y397 (pFAK^Y397) ([3]; SKOV3-IP1 cells, 1 μM concentration) | decrease in mean tumor weight compared to control ([1]; nude mice, i.p. tumor, FAK-inhibitor 75 mg/kg oral daily, docetaxel 35 ug IP weekly) | reduction in migration (SKOV3-IP1 cells [4])
Cc1ccc(Nc2nccc(N(C)c3ccc4c(C)n(C)nc4c3)n2)cc1S(N)(=O)=O [pazopanib, 5-[[4-[(2,3-dimethyl-2H-indazol-6-yl)methylamino]-2-pyrimidinyl]amino]-2-methylbenzenesulfonamide, reference compound] | 49% | – | – | – | – | –
CONC(=O)c1ccccc1Nc1cc(Nc2cc(C)nn2C(C)C)ncc1Cl [FAK-inhibitor, 2-[(5-chloro-2-[[3-methyl-1-(1-methylethyl)-1H-pyrazol-5-yl]amino]-4-pyridinyl)amino]-N-methoxybenzamide] | – | 12.5% | reduced levels | reduced levels | 58% | 54%
